Series [1] has as its system autophagic vesicles (AV) in fat body tissue. The experiment in a line: Staining of fresh Drosophila larval fat body tissue (AV labeling). The note with it: 10 μM dye, 10 min. The class given is cell-based. The protocol:
Staining of Drosophila Tissues. To perform a rapid first-pass examination of the compounds ability to stain AV we examined fat body tissues from wandering 3rd instar Drosophila larvae. 1 mM DMSO stock solutions were prepared for each compound and stored at −20° C. Fat body tissue from wild type fly larvae were dissected from the surrounding cuticle and organs, and placed in 1 ml iced PBS solution. Tissues were immediately stained for 10 min, in a final 10 μM concentration for each dye. Samples were rinsed twice with 1×PBS, mounted with VECTASHIELD™ (Vector Laboratories, Inc, Burlingame, Calif.) and immediately imaged using a scanning confocal fluorescent microscope (Leica, FITC channel). As a positive control, fly tissues (3rd instar) were also stained with BODIPY-TexasRed-cadaverine (Invitrogen, red).

In series [2] the test system is autophagic vesicles in Atg1-/- fat body tissue. Briefly: FITC-TG / LYSOTRACKER staining of Atg1-/- mutant fat body tissue. The class given is cell-based, Drosophila. The note with it: starvation and hormone-dependent induction. The protocol:
These studies indicates the FITC-dyes highlight a population of vesicles that are distinct from LYSOTRACKER™ and could be used to study the early in vivo formation, maturation and fusion events of AV within cells. To further confirm the specificity of the FITC-TG AV staining, fat body tissue was prepared from Atg1−/− larvae and compared with wild type controls. Signaling of the Atg1 protein kinase is essential for pathway induction and AV formation, see e.g., (21, 57). In Drosophila loss-of-function mutations in this gene result in late pupal lethality but have a minor impairment on early development, thus providing sufficient material for imaging studies. […] This staining pattern is consistent with lysosomes maturing from the endosomal pathway but AV failing to be formed under normal physiological conditions. FIG. 8 illustrates images of stained tissues from: Fed (left column images), fasted (middle column images) and hormone-induced (“3rd instar” right column images) autophagy profiles in wildtype (upper row images) and Atg1−/− mutant (lower row images) cells. Fat body tissue from larvae that were fed, fasted or undergoing hormone-induced autophagy were collected and stained with LYSOTRACKER™ (red) and the exemplary FITC-TG (green). […] While LYSOTRACKER™ puncta are detected (red) in these Atg1^−/− mutant tissues, the exemplary FITC-TG dye fails to stain autophagosomes or autolysosomes.

Series [3] concerns mCherry-LC3 puncta (autophagosomes) in heart. The experiment in a line: MDC labeling of cardiac tissue in mCherry-LC3 mice. The class given is in vivo. As to conditions: MDC 1.5 mg/kg i.p. 1 hr before sacrifice, heart sections. The protocol:
To examine its labeling profile in cardiac tissues, mCherry-LC3 mice were injected with MDC (1.5 mg/kg i.p.) 1 hr before being sacrificed, e.g., see Iwai-Kanai (2008) supra, Yitzhaki (2009) Basic Res. Cardiol. 104:157-167. Hearts were collected and frozen tissues sections prepared for imaging. Under conditions where autophagy is activated and mCherry-LC3 puncta formed, MDC-labeled structures were similarly up regulated, see FIG. 4, and see e.g. Iwai-Kanai (2008) supra. MDC labeled a subset of mCherry-LC3-positive structures, presumably fused autolysosome vesicles.
FIG. 4 illustrates three images, including mCherry and MDC labeling of vesicles. mCherry-LC3 expressing mice were treated with rapamycin and hearts prepared for fluorescent imaging. […] The right image of FIG. 4 is a merge of the mCherry-LC3 and MDC images.

A short description of series [4]: Fluorophore properties (pKa, pH stability, photostability, storage stability). The class given is physicochemical. As to conditions: for photostability / photobleaching: normal fluorescence exposure.
Another series has as its system autophagic vesicles (AV). The experiment in a line: MDC staining of AV in cell or tissue preparations. In kind it is cell-based. From the text:
Initial synthesis of autophagic specific dyes of this invention was based on MDC. […] In alternative embodiments, dyes used in compositions of this invention are vesicle selective, have multiple fluorescent excitation/emission spectra and can be used for several imaging applications. Thus, the new dyes of this invention will greatly benefit autophagy research.

The conditions of series [5]: cited from earlier work.
Series [6] has as its system autophagosomes in heart tissue. Briefly: Heart perfusion with BODIPY-TR-cadaverine, dye incorporation into autophagosomes read in plate reader. As to conditions: perfused hearts, FIG. 2. How it is done:
1) Mince 1-5 mm^3 tissue sample in 1-2 mL homogenization buffer in 35 mm dish 2) Polytron at ½ speed, 5 sec, on ice in 15 mL round bottom polypropylene tube 3) Spin out nuclei and heavy membranes @ 1000 g, 5 min, 4° C. in 15 mL Falcon tube 4) Move post-nuclear supernatant into 1.5 mL Eppendorf tube 5) Add MDC (or Cadaverine 488) to final concentration of 25 μM 6) Incubate on ice 10 min protected from light 7) Spin sample 20,000×g, 20 min, 4° C. 8) Aspirate supernatant and rinse off pellet with 1 mL cold resuspension buffer 2×'s 9) Resuspend pellet in 350 μL resuspension buffer until mixed evenly 10) Add 100 μL per well in triplicate to black 96-well plate 11) Read on Fluorescence plate reader @ excitation/emission 495 nm/519 nm 12) Use remaining sample to run Bradford assay to quantify protein concentration.
The hearts were perfused with BODIPY-TR™-cadaverine followed by washout, then homogenized and fluorescence read in plate reader. […] FIG. 2 right image is a graph illustrating quantitation of dye incorporation into autophagosomes, with the left column graphically quantitating the upper left image's fluorescence and the right column graphically quantitating the lower left image's (the Tat-Atg5(K130R)-inhibited) fluorescence.

A further series relates to HL-1 cells. Briefly: High-throughput cadaverine plate-reader assay of autophagy (ALEXAFLUOR488-cadaverine fluorescence). The class given is cell-based, Mouse. The note with it: FIG. 1. How it is done: For 24 Well Plates: • Plate 75,000 cells per well • Wait for cells to achieve approximately 80% confluence (approximately 1 day) • Treat cells (3 h 30 min starvation, 3 mL of medium) • Rinse cells with PBS (1 ml) • Incubate cells with probe for 10 minutes at 37° C. • Wash cells four times with PBS (1 mL) • Lyse cells by incubating in 10 mM Tris-Cl pH 8 containing 0.1% Triton X-100 for 20 minutes (500 uL) • Measure fluorescence in plate reader • Add ethidium bromide to a final concentration of 0.2 mM and measure fluorescence (exc=530 nm; em=590 nm) • Normalize results to the number of cells (ethidium bromide reading)
Probes: • ALEXAFLUOR488™ cadaverine (A30676, Invitrogen, Carlsbad, Calif.) • Final concentration 25 uM, exc=493 nm; em=516 nm. • BODIPY TR™ cadaverine (D6251, Invitrogen, Carlsbad, Calif.) • Final concentration 125 nM, exc=588 nm; em=616 nm.

Molecules are shown by their SMILES.

On to `Cl.NCCCCCNC(=O)COc1ccc(C2=[N+]3C(=Cc4ccc(-c5cccs5)n4[B-]3(F)F)C=C2)cc1` [BODIPY-cadaverine, 5-(((4-(4,4-difluoro-5-(2-thienyl)-4-bora-3a,4a-diaza-s-indacene-3-yl)phenoxy)acetyl)amino)pentylamine, hydrochloride], for which the “staining of intracellular vesicles / cytoplasmic puncta in fresh tissue” value in series [1] is “robust staining pattern”.

Take `CN(C)CCNC(=O)CCc1ccc2n1[B-](F)(F)[N+]1=C(c3ccc[nH]3)C=CC1=C2` [LYSOTRACKER™]: in series [2], the “vesicle staining in Atg1-/- flies” value is “some LYSOTRACKER™ positive staining”.

As to `CN(C)c1cccc2c(S(=O)(=O)NCCCCCN)cccc12` [MDC, monodansylcadaverine], the “co-localization of MDC labeling with mCherry-LC3 puncta” value in series [3] is “excellent co-localization”. Moreover, in series [4], the stability during storage result is recorded as “stability issues during storage” and the photostability / photobleaching result is listed as “significant photobleaching”. Besides, the “usability on fixed samples” value in the series with autophagic vesicles (AV) is “cannot be used on fixed samples”. For orientation: pKa means the pH at which an ionisable group is half protonated. As to `O=C1OC2(c3cc(F)c(O)cc3Oc3cc(O)c(F)cc32)c2ccccc21` [Oregon Green 488, Difluoro-fluorescein], the photostability / photobleaching entry in series [4] was “excellent photostability”. Besides, the pKa in series [5] was 4.7. Take `Nc1ccc(S(=O)(=O)Nc2ccnn2-c2ccccc2)cc1` [Sulfaphenazole]: the “effect on autophagy (BODIPY-TR-cadaverine incorporation into autophagosomes)” value in series [6] is recorded as “potent inducer of autophagy”. Take `CO/C1=C\C(C)=C\[C@@H](C)[C@@H](O)[C@@H](C)C/C(C)=C/C=C/[C@H](OC)[C@@H]([C@@H](C)[C@@H](O)[C@H](C)[C@@]2(O)C[C@@H](O)[C@H](C)[C@@H](C(C)C)O2)OC1=O` [Bafilomycin A1]: the “effect on starvation-increased autophagy (relative ALEXAFLUOR488-cadaverine fluorescence normalized to cell number)” value with HL-1 cells was “partially blocked”. Take `CCN(CC)CCCC(C)Nc1ccnc2cc(Cl)ccc12` (centres unmarked) [chloroquine]: the “effect on starvation-increased autophagy (relative ALEXAFLUOR488-cadaverine fluorescence normalized to cell number)” value in the series on HL-1 cells is recorded as “partially blocked”.

The record behind these values is patent US20120042398A1, “COMPOSITIONS FOR LABELING AND IDENTIFYING AUTOPHAGOSOMES AND METHODS FOR MAKING AND USING THEM” (SAN DIEGO STATE UNIVERSITY (SDSU) FOUNDATION, priority 2008, published 2012).
